Laboratory results published in ChEMBL document CHEMBL1201862, “PubChem BioAssay data set” (2004).
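A five-concentration, 48-hour dose response in 96-well plates underlies each endpoint, interpolated linearly between surrounding concentrations. GI50 = concentration required for 50% inhibition of growth.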 Calls of active or inactive are those of the source. Rule as the data show it: active = GI50 up to about 1.1 µM and inactive = higher.

Tests used:
Assay in all cases: NCI-60 cell line screen, 48 h
786-0 = system: 786-0
A498 = system: A498
A549 = system: A549
ACHN = system: ACHN
CAKI-1 = system: CAKI-1
CCRF-CEM = system: CCRF-CEM
COLO 205 = system: COLO 205
DLD-1 = system: DLD-1
DMS-114 = system: DMS-114
DMS-273 = system: DMS-273
EKVX = system: EKVX
HCC 2998 = system: HCC 2998
HCT-116 = system: HCT-116
HCT-15 = system: HCT-15
HL-60 = system: HL-60
HOP-18 = system: HOP-18
HOP-62 = system: HOP-62
HOP-92 = system: HOP-92
HT-29 = system: HT-29
IGROV-1 = system: IGROV-1
K562 = system: K562
KM-20L2 = system: KM-20L2
KM12 = system: KM12
LOX IMVI = system: LOX IMVI
LXFL 529 = system: LXFL 529
M14 = system: M14
M19-MEL = system: M19-MEL
MOLT-4 = system: MOLT-4
Malme-3M = system: Malme-3M
NCI-H226 = system: NCI-H226
NCI-H23 = system: NCI-H23
NCI-H460 = system: NCI-H460
NCI-H522 = system: NCI-H522
OVCAR-3 = system: OVCAR-3
OVCAR-4 = system: OVCAR-4
OVCAR-5 = system: OVCAR-5
OVCAR-8 = system: OVCAR-8
RPMI-8226 = system: RPMI-8226
RXF 393 = system: RXF 393
RXF 631 = system: RXF 631
SF-268 = system: SF-268
SF-295 = system: SF-295
SF-539 = system: SF-539
SK-MEL-28 = system: SK-MEL-28
SK-MEL-2 = system: SK-MEL-2
SK-MEL-5 = system: SK-MEL-5
SK-OV-3 = system: SK-OV-3
SN12C = system: SN12C
SNB-19 = system: SNB-19
SNB-75 = system: SNB-75
SW-620 = system: SW-620
TK-10 = system: TK-10
U-251 = system: U-251
UACC-257 = system: UACC-257
UACC-62 = system: UACC-62
UO-31 = system: UO-31
SNB-78 = system: SNB-78
SR = system: SR
XF498 = system: XF498

Measured: GI50

CCOC(=O)c1ncn2c1[nH]c(=S)c1ccccc12
> 100 µM: HCT-15
inactive: 786-0 > 100 µM | A498 > 100 µM | A549 > 100 µM | ACHN > 100 µM | CAKI-1 > 100 µM | CCRF-CEM 50.2 µM | COLO 205 49.8 µM | DLD-1 > 100 µM | DMS-114 49.1 µM | DMS-273 44.1 µM | EKVX > 100 µM | HCC 2998 > 100 µM | HCT-116 > 100 µM | HL-60 > 100 µM | HOP-18 > 100 µM | HOP-62 > 100 µM | HOP-92 > 100 µM | HT-29 > 100 µM | IGROV-1 > 100 µM | K562 91.6 µM | KM-20L2 > 100 µM | KM12 > 100 µM | LOX IMVI 61.7 µM | LXFL 529 > 100 µM | M14 > 100 µM | M19-MEL > 100 µM | MOLT-4 > 100 µM | Malme-3M > 100 µM | NCI-H226 > 100 µM | NCI-H23 > 100 µM | NCI-H460 > 100 µM | NCI-H522 73.6 µM | OVCAR-3 > 100 µM | OVCAR-4 > 100 µM | OVCAR-5 > 100 µM | OVCAR-8 > 100 µM | RPMI-8226 31.3 µM | RXF 393 > 100 µM | RXF 631 > 100 µM | SF-268 > 100 µM | SF-295 > 100 µM | SF-539 > 100 µM | SK-MEL-28 > 100 µM | SK-MEL-2 > 100 µM | SK-MEL-5 > 100 µM | SK-OV-3 > 100 µM | SN12C > 100 µM | SNB-19 > 100 µM | SNB-75 > 100 µM | SW-620 22.9 µM | TK-10 > 100 µM | U-251 46.9 µM | UACC-257 > 100 µM | UACC-62 > 100 µM | UO-31 > 100 µM

C=CCO/N=C(\OC(=O)c1ccc([N+](=O)[O-])cc1)c1ccccc1
> 100 µM: HCT-15
inactive: 786-0 > 100 µM | A498 > 100 µM | A549 > 100 µM | ACHN > 100 µM | CAKI-1 > 100 µM | CCRF-CEM > 100 µM | COLO 205 > 100 µM | DLD-1 > 100 µM | DMS-114 > 100 µM | DMS-273 > 100 µM | EKVX > 100 µM | HCC 2998 > 100 µM | HOP-18 > 100 µM | HOP-62 > 100 µM | HOP-92 > 100 µM | HT-29 > 100 µM | IGROV-1 > 100 µM | K562 > 100 µM | KM12 > 100 µM | LXFL 529 > 100 µM | M14 > 100 µM | M19-MEL > 100 µM | Malme-3M > 100 µM | NCI-H226 > 100 µM | NCI-H23 > 100 µM | NCI-H460 > 100 µM | OVCAR-3 > 100 µM | OVCAR-4 > 100 µM | OVCAR-5 > 100 µM | OVCAR-8 > 100 µM | RPMI-8226 > 100 µM | RXF 631 > 100 µM | SF-268 > 100 µM | SF-295 > 100 µM | SF-539 > 100 µM | SK-MEL-28 > 100 µM | SK-MEL-2 > 100 µM | SK-MEL-5 > 100 µM | SK-OV-3 > 100 µM | SN12C > 100 µM | SNB-19 > 100 µM | SNB-75 > 100 µM | SNB-78 > 100 µM | SW-620 > 100 µM | TK-10 > 100 µM | U-251 > 100 µM | UACC-62 > 100 µM | UO-31 > 100 µM

O=S(=O)(/C=C/c1ccc(F)cc1)Cc1ccc(CS(=O)(=O)/C=C/c2ccc(F)cc2)cc1
inactive: 786-0 > 100 µM | A549 > 100 µM | ACHN > 100 µM | CAKI-1 > 100 µM | CCRF-CEM > 100 µM | COLO 205 > 100 µM | DLD-1 > 100 µM | DMS-114 > 100 µM | DMS-273 > 100 µM | EKVX > 100 µM | HCC 2998 > 100 µM | HCT-116 > 100 µM | HL-60 > 100 µM | HOP-18 > 100 µM | HOP-62 > 100 µM | HOP-92 > 100 µM | HT-29 > 100 µM | IGROV-1 > 100 µM | K562 > 100 µM | KM-20L2 > 100 µM | KM12 > 100 µM | LOX IMVI > 100 µM | LXFL 529 > 100 µM | M14 > 100 µM | M19-MEL > 100 µM | MOLT-4 > 100 µM | Malme-3M > 100 µM | NCI-H226 > 100 µM | NCI-H23 > 100 µM | NCI-H460 > 100 µM | NCI-H522 > 100 µM | OVCAR-3 > 100 µM | OVCAR-4 > 100 µM | OVCAR-5 > 100 µM | OVCAR-8 > 100 µM | RPMI-8226 > 100 µM | RXF 393 > 100 µM | RXF 631 > 100 µM | SF-268 > 100 µM | SF-295 > 100 µM | SF-539 > 100 µM | SK-MEL-28 > 100 µM | SK-MEL-2 > 100 µM | SK-MEL-5 > 100 µM | SK-OV-3 > 100 µM | SN12C > 100 µM | SNB-19 > 100 µM | SNB-75 > 100 µM | SNB-78 > 100 µM | SR > 100 µM | SW-620 > 100 µM | TK-10 > 100 µM | U-251 > 100 µM | UACC-257 > 100 µM | UACC-62 > 100 µM | UO-31 > 100 µM | XF498 > 100 µM
> 100 µM: HCT-15
